The test system of one data set is MOLT-4 cells. The data set can be described thus: MTT cell viability assay, MOLT-4. Format: cell-based, human. The conditions noted are these: Homo sapiens; MOLT-4 leukaemia cells, MTT; read-out: IC50 cell proliferation MOLT-4. (In general: Tetrazolium assays rely on reduction of a dye to a coloured formazan, in cell work by metabolically active cells.)
A further data set has as its system KE-37 cells. Kind of data set: MTT cell viability assay, KE-37. Format: cell-based. Conditions: Homo sapiens, KE-37 leukaemia cells, read-out: IC50 cell proliferation KE-37.
In the next data set the test system is P30-OHK cells. Kind of data set: MTT cell viability assay, P30-OHK. Format: cell-based. The conditions noted are these: Homo sapiens, P30-OHK leukaemia cells, read-out: IC50 cell proliferation P30-OHK.
The next data set concerns LC4-1 cells. Kind of data set: MTT cell viability assay, LC4-1. Format: cell-based. Conditions: Homo sapiens, LC4-1 leukaemia cells, read-out: IC50 cell proliferation LC4-1.
The next data set concerns HAL-01 cells. The data set can be described thus: MTT cell viability assay, HAL-01. Format: cell-based. The conditions noted are these: Homo sapiens, HAL-01 leukaemia cells, read-out: IC50 cell proliferation HAL-01.
Another data set concerns SUP-B15 cells. Kind of data set: MTT cell viability assay, SUP-B15. Format: cell-based. Conditions: Homo sapiens, SUP-B15 leukaemia cells, read-out: IC50 cell proliferation SUP-B15.
Another data set addresses T1, LSD1 (Homo sapiens, UniProt O60341).
T1 construct: pET-28b-LSD1 (full length) was transfected into BL21 (DE); inferred from the pET-28b vector and Ni-NTA purification; made in house; host or cells: E. coli BL21 (DE)
Kind of data set: LSD1 enzyme inhibition assay (recombinant LSD1, fluorescence). Format: biochemical. Conditions: for IC50: in vitro.

In a further data set the target is T2, MAO-A (Homo sapiens, UniProt P21397).
T2 construct: purchased Active Motif 31502
T2 sequence (P21397 1-527): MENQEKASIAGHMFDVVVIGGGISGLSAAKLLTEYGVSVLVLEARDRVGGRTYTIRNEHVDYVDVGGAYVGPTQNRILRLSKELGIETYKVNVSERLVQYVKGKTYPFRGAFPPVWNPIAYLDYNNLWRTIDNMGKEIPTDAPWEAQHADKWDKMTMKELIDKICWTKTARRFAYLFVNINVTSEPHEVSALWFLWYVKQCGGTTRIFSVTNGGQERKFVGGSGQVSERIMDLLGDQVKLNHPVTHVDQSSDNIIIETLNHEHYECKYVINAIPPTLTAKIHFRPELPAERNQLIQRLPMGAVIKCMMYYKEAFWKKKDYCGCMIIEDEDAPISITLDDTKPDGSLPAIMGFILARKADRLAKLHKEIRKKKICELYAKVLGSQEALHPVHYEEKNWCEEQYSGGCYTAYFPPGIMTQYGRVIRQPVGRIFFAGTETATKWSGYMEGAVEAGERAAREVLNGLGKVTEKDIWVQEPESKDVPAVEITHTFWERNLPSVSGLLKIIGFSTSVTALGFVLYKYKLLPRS
Kind of data set: MAO-A inhibition assay (MAO-Glo kit). The data set is classed as biochemical. Conditions: in vitro. Here is the method:
(§1) The inhibition of LSD1 activity was evaluated according to reported references. pET-28b-LSD1 (full length) was transfected into BL21 (DE). Then, the protein was induced with 0.25 mmol/L IPTG following sonication and purified with Ni-NTA (Qiagen, Tubingen, Germany), Resource Q (GE, Pittsburgh, PA, USA) and Sephacryl S-200 HR (GE, Pittsburgh, PA, USA). The fluorescence intensity was read using EnVision Plate Reader (PerkinElmer, Waltham, MA, USA) to calculate the inhibition rate. The MAO-A and MAO-B were purchased from Active Motif (Cat#31502, Cat#31503, Carlsbad, CA, USA). Biochemical Kits were purchased from Promega (MAO-Glo Assay, Madison, WI, USA). The inhibitory activities of MAO-A and MAO-B were obtained according to the reported reference. The inhibitory activities of CDK1 and CDK2 were obtained according to the reported reference.

The target in the next data set is T3, MAO-B (Homo sapiens, UniProt P27338).
T3 construct: purchased Active Motif 31503
T3 sequence (P27338 1-520): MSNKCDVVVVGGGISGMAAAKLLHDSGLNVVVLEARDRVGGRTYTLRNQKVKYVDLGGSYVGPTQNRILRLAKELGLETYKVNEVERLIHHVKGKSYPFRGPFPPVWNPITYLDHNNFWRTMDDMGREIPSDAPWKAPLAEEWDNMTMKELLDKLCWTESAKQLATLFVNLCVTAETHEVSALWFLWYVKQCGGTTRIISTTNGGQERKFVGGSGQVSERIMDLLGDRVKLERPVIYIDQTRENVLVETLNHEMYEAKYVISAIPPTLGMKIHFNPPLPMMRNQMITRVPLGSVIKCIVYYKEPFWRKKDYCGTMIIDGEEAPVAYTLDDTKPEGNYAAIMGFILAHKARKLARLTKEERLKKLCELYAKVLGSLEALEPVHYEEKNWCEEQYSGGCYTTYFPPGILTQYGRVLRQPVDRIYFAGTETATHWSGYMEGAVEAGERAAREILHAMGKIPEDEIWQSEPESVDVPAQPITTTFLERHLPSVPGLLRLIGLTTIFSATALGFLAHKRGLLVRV
The data set can be described thus: MAO-B inhibition assay (MAO-Glo kit). The data set is classed as biochemical. Conditions: in vitro; MAO-AB [sic]. The protocol: as §1

Molecules are shown by their SMILES.

Method for HAL-01 cells: (§2) All cell lines were purchased from the China Centre for Type Culture Collection (CCTCC, China). […] Then, 20 μL of MTT (3–(4,5-dimethylthiazol-2-yl)-2,5-diphenyltetrazolium bromide) solution (5 mg/ml) was added and the cells were incubated for 4 h. The absorbance was measured using a microplate reader (DeTie Technology Co., Ltd, NanJing, China).
Method for KE-37 cells: as §2
Method for LC4-1 cells: as §2
Method for LSD1: The inhibition of LSD1 activity was evaluated according to reported references [23, 24]. pET-28b-LSD1 (full length) was transfected into BL21 (DE). Then, the protein was induced with 0.25 mmol/L IPTG following sonication and purified with Ni-NTA (Qiagen, Tubingen, Germany), Resource Q (GE, Pittsburgh, PA, USA) and Sephacryl S-200 HR (GE, Pittsburgh, PA, USA). The fluorescence intensity was read using EnVision Plate Reader (PerkinElmer, Waltham, MA, USA) to calculate the inhibition rate. […] The inhibitory activities of CDK1 and CDK2 were obtained according to the reported reference [26].
Method for MOLT-4 cells: as §2
Method for P30-OHK cells: as §2
Method for SUP-B15 cells: as §2

As for `O=c1[nH]cc(F)c(=O)[nH]1` [5-Fluorouracil], the IC50 was 2.89 µM in the data set on MOLT-4 cells; 4.02 µM with KE-37 cells; 4.17 µM with P30-OHK cells; 10.2 µM in the data set with LC4-1 cells; 5.1 µM with HAL-01 cells; 2.1 µM in the data set on SUP-B15 cells.
What is called melting point is the temperature, or range, at which the solid turns liquid. `O=C(CCl)Nc1ccc(C(=O)/C=C/c2ccccc2)cc1` [C1, (E)-2-Chloro-N-(4-cinnamoylphenyl)acetamide] displayed a melting point of 145 to 147 °C. Besides, on LSD1, the IC50 was > 20 µM. For the same molecule, the IC50 at MAO-A was > 20 µM. Further, the IC50 at MAO-B was > 20 µM.
As to `O=C(CCl)Nc1ccc(C(=O)/C=C/c2cccc(F)c2)cc1` [C2, (E)-2-Chloro-N-(4–(3-(3-fluorophenyl)acryloyl)phenyl)acetamide], the melting point is 156 to 158 °C. For the same molecule, the IC50 at LSD1 amounted to 19.7 ± 0.67 µM. In addition, the IC50 at MAO-A is > 20 µM. Also, the IC50 on MAO-B was > 20 µM.
In turn, `O=C(CCl)Nc1ccc(C(=O)/C=C/c2ccccc2F)cc1` [C3, (E)-2-Chloro-N-(4–(3-(2-fluorophenyl)acryloyl)phenyl)acetamide] had a melting point of 167 to 169 °C. Further, the IC50 on LSD1 came out at 15.4 ± 0.28 µM. Also, the IC50 at MAO-A is > 20 µM. Further, the IC50 at MAO-B is > 20 µM.
Regarding `O=C(CCl)Nc1ccc(C(=O)/C=C/c2ccc(F)cc2)cc1` [C4], the IC50 at LSD1, against MAO-A and against MAO-B was > 20 µM each time.
Regarding `Nc1ccc(C(=O)/C=C/c2ccccc2F)cc1` [Chalcone 4, reference compound], the IC50 at LSD1, against MAO-A and at MAO-B was > 20 µM throughout.
`CCN1CCN(C(=S)SCC(=O)Nc2ccc(C(=O)/C=C/c3ccc(F)cc3)cc2)CC1` [D1, (E)-2-((4–(3-(4-Fluorophenyl)acryloyl)phenyl)amino)-2-oxoethyl-4-ethylpiperazine-1-carbodithioate] returned a melting point of 182 to 184 °C. The IC50 at LSD1 turned out to be 11.3 ± 0.13 µM. At MAO-A, the IC50 was > 20 µM. For the same molecule, the IC50 against MAO-B was > 20 µM.
Regarding `CN1CCN(C(=S)SCC(=O)Nc2ccc(C(=O)/C=C/c3ccccc3)cc2)CC1` [D2, (E)-2-((4-Cinnamoylphenyl)amino)-2-oxoethyl-4-methylpiperazine-1-carbodithioate], the IC50 on LSD1 was 9.35 ± 0.14 µM; against MAO-A, > 20 µM; against MAO-B it was > 20 µM.
Take `CCN1CCN(C(=S)SCC(=O)Nc2ccc(C(=O)/C=C/c3ccccc3)cc2)CC1` [D3, (E)-2-((4-Cinnamoylphenyl)amino)-2-oxoethyl-4-ethylpiperazine-1-carbodithioate]: the melting point fell in the range of 181 to 183 °C. Also, at LSD1 (D3 vs. D5), the “fold activity loss against LSD1 (fluorine replaced with hydrogen)” value was “over 6 fold”. In addition, the IC50 at LSD1 is 13.9 ± 0.18 µM. Further, the IC50 against MAO-A was > 20 µM. For the same molecule, the IC50 against MAO-B is > 20 µM.
Consider `CN1CCN(C(=S)SCC(=O)Nc2ccc(C(=O)/C=C/c3cccc(F)c3)cc2)CC1` [D4, (E)-2-((4–(3-(3-Fluorophenyl)acryloyl)phenyl)amino)-2-oxoethyl-4-methylpiperazine-1-carbodithioate], for which the values for the IC50 on LSD1, at MAO-A and against MAO-B were 6.03 ± 0.17 µM, > 20 µM and > 20 µM, respectively.
`CCN1CCN(C(=S)SCC(=O)Nc2ccc(C(=O)/C=C/c3cccc(F)c3)cc2)CC1` [D5, (E)-2-((4–(3-(3-Fluorophenyl)acryloyl)phenyl)amino)-2-oxoethyl-4-ethylpiperazine-1-carbodithioate] gave a melting point of 136 to 138 °C. The IC50 at LSD1 was found to be 2.29 ± 0.35 µM. Besides, the IC50 on MAO-A is > 20 µM. Besides, at MAO-B, the IC50 is > 20 µM.
Take `O=C(CSC(=S)N1CCN(Cc2ccccc2)CC1)Nc1ccc(C(=O)/C=C/c2ccccc2F)cc1` [D7, (E)-2-((4–(3-(2-Fluorophenyl)acryloyl)phenyl)amino)-2-oxoethyl-4-benzylpiperazine-1-carbodithioate]: the IC50 is 3.27 ± 0.13 µM at LSD1, > 20 µM against MAO-A and > 20 µM at MAO-B.
As for `Cc1ccc(Cn2cc(CSC(=S)N3CCN(C(=O)OC(C)(C)C)CC3)nn2)cc1` [Dithiocarbamate 26, reference compound], the IC50 against MAO-A and against MAO-B was > 20 µM each time.

Source of the values: PMC7738283, “Discovery of orally active chalcones as histone lysine specific demethylase 1 inhibitors for the treatment of leukaemia” (Journal of Enzyme Inhibition and Medicinal Chemistry, 2020).
